Test results: patent US6861390B2, “Derivatives of UK-2A” (priority 2001, dated 2005)

How the values were obtained:
[1] = tested on: Leptosphaeria nodorum (LEPTNO); experiment: Glume Blotch of Wheat, whole plant 24 Hour Protectant (T2); settings: Parastagonospora nodorum; wheat (cultivar Yuma), sprayed at 100 ppm, inoculated after 24 hours; read-out: T2 LEPTNO in vivo 1 Day Protectant, control of fungal infection
[2] = tested on: Rhizoctonia solani (RHIZSO); experiment: microbe, parasite or virus in culture; assay type: cell-based; settings: read-out: T10 RHIZSO in vitro Growth Inhibition
[3] = tested on: Mycosphaerella graminicola (Septoria tritici, SEPTTR); experiment: microbe, parasite or virus in culture; assay type: cell-based; settings: Zymoseptoria tritici, read-out: T11 SEPTTR in vitro Growth Inhibition
[4] = tested on: Puccinia recondita (PUCCRT); experiment: Brown Rust of Wheat, whole plant 24 Hour Protectant (T5); settings: wheat (cultivar Yuma), sprayed at 100 ppm, inoculated after 24 hours, read-out: T5 PUCCRT in vivo 1 Day Protectant, control of fungal infection
Ustilago maydis (USTIMA) = experiment: microbe, parasite or virus in culture; assay type: cell-based; settings: Mycosarcoma maydis, read-out: T12 USTIMA in vitro Growth Inhibition
[5] = tested on: Phytophthora infestans (PHYTIN); experiment: microbe, parasite or virus in culture; assay type: cell-based; settings: in Secale cereale, read-out: T8 PHYTIN in vitro Growth Inhibition
[6] = tested on: Erysiphe graminis (ERYSGT); experiment: Powdery Mildew of Wheat, whole plant 24 Hour Protectant (T1); settings: Blumeria graminis, in Triticum aestivum, read-out: T1 ERYSGT in vivo 1 Day Protectant, control of fungal infection
[7] = tested on: Stagonospora nodorum (Leptosphaeria nodorum, LEPTNO); experiment: microbe, parasite or virus in culture; assay type: cell-based; settings: Parastagonospora nodorum, read-out: T7 LEPTNO in vitro Growth Inhibition
[8] = tested on: Phytophthora infestans (PHYTIN); experiment: whole plant or invertebrate; settings: in Solanum lycopersicum, 24 h, read-out: T3 PHYTIN in vivo 1 Day Protectant, control of fungal infection
[9] = tested on: Magnaporthe grisea (Pyricularia oryzae, PYRIOR); experiment: microbe, parasite or virus in culture; assay type: cell-based; settings: read-out: T9 PYRIOR in vitro Growth Inhibition
[10] = tested on: Septoria tritici (SEPTTR); experiment: Leaf Blotch of Wheat, whole plant 24 Hour Protectant (T6); settings: Zymoseptoria tritici; wheat (cultivar Monon), sprayed at 100 ppm, inoculated after 24 hours; read-out: T6 SEPTTR in vivo 1 Day Protectant, control of fungal infection

| Structure (SMILES) | pest or weed control at 100 ppm [1] [%] | inhibition at 25 ppm [2] [%] | inhibition at 25 ppm [3] [%] | pest or weed control at 100 ppm [4] [%] | inhibition at 25 ppm (Ustilago maydis (USTIMA)) [%] | melting point [°C] | inhibition at 25 ppm [5] [%] | pest or weed control at 100 ppm [6] [%] | inhibition at 25 ppm [7] [%] | pest or weed control at 100 ppm [8] [%] | inhibition at 25 ppm [9] [%] | pest or weed control at 100 ppm [10] [%] |
| --- | --- | --- | --- | --- | --- | --- | --- | --- | --- | --- | --- | --- |
| COc1ccnc(C(=O)N[C@H]2COC(=O)[C@H](Cc3ccccc3)[C@@H](OC(=O)C(C)C)[C@H](C)OC2=O)c1OCSC [Compound 18] | 75 to 100 | > 80 | > 80 | 75 to 100 | < 80 | 146 to 148 | < 80 | < 25 | > 80 | < 25 | > 80 |  |
| COc1ccnc(C(=O)N[C@H]2COC(=O)[C@H](Cc3ccccc3)[C@@H](OC(=O)C(C)C)[C@H](C)OC2=O)c1OCSc1ccccc1 [Compound 19] | 75 to 100 | > 80 | > 80 | 75 to 100 | < 80 | 133 to 135 | < 80 | < 25 | > 80 | < 25 | > 80 |  |
| COc1ccnc(C(=O)N[C@H]2COC(=O)[C@H](Cc3ccccc3)[C@@H](OC(=O)C(C)C)[C@H](C)OC2=O)c1OCOC(C)=O [Compound 20] | 75 to 100 | < 80 | < 80 | 75 to 100 | > 80 | 146 to 147 | < 80 | 75 to 100 | > 80 | < 25 | < 80 | 75 to 100 |
| CCCC(=O)OCOc1c(OC)ccnc1C(=O)N[C@H]1COC(=O)[C@H](Cc2ccccc2)[C@@H](OC(=O)C(C)C)[C@H](C)OC1=O [Compound 22] | 75 to 100 | < 80 | < 80 | 75 to 100 | < 80 | 102 to 105 | < 80 | 75 to 100 | > 80 | < 25 | < 80 | 75 to 100 |
| COc1ccnc(C(=O)N[C@H]2COC(=O)[C@H](Cc3ccccc3)[C@@H](OC(=O)C(C)C)[C@H](C)OC2=O)c1OCOC(=O)C(C)(C)C [Compound 24] | 75 to 100 | < 80 | > 80 | 75 to 100 | < 80 | 178 to 179 | < 80 | 25 to 74 | < 80 | < 25 | > 80 | 75 to 100 |
| COc1ccnc(C(=O)N[C@H]2COC(=O)[C@H](Cc3ccccc3)[C@@H](OC(=O)C(C)C)[C@H](C)OC2=O)c1OC(C)OC(C)=O (some centres unmarked) [Compound 25] | 75 to 100 | < 80 | > 80 | 75 to 100 | > 80 | 58 to 65 | < 80 | < 25 | > 80 | < 25 | < 80 | 75 to 100 |
| CCCO[C@H]1[C@H](C)OC(=O)[C@@H](NC(=O)c2nccc(OC)c2OCOC(C)=O)COC(=O)[C@@H]1Cc1ccccc1 [Compound 51] | 75 to 100 | > 80 | > 80 | 75 to 100 | < 80 | 65 to 120 | < 80 | 75 to 100 | > 80 | < 25 | > 80 |  |
| C=C(C)CO[C@H]1[C@H](C)OC(=O)[C@@H](NC(=O)c2nccc(OC)c2OCOC(C)=O)COC(=O)[C@@H]1Cc1ccccc1 [Compound 53] | 75 to 100 | < 80 | > 80 | 75 to 100 | < 80 | 102 to 104 | > 80 | < 25 | > 80 | < 25 | > 80 |  |
